Data on two compounds can be found in patent publication USRE47193E1, “Selectively substituted quinoline compounds” (EISAI R&D MANAGEMENT CO., LTD., priority 2013, dated 2019).

“Also recorded” adds a separate entry of the source.

In this test the test system is Pristane DBA/1 lupus disease model. In words: Pristane: DBA/1 lupus disease model. The test is classed as in vivo, mouse. The following applies: for auto-antibody specificities (titers): Pristane model, particularly robust impact on anti-RiboP titers. On the procedure: FIG. 3A through FIG. 3E show results of testing compound ER-899742 in the Pristane: DBA/1 strain lupus disease model. Figure Legend: Female DBA/1 mice at 9 weeks of age were given an intraperitoneal injection of 0.5 ml pristane or PBS. At 9 weeks post-pristane animals were bled for auto-antibody titers. Once-a-day oral dosing with Vehicle (Veh; 0.5% methyl-cellulose) or 33 mg/kg, 100 mg/kg, or 300 mg/kg of ER-899742 was begun 10 weeks after pristane injection and continued for 13 weeks of treatment. Mice were euthanized after 13 weeks of compound treatment, and anti-dsDNA (FIG. 3A), anti-Sm/nRNP (FIG. 3B), anti-histone (FIG. 3C) and anti-RiboP (FIG. 3D) titers were measured in blood plasma samples by ELISA (statistical significance of treatment versus vehicle determined by ANOVA with Dunnett's post-test). (FIG. 3E) The expression of IFN-regulated genes in whole blood was measured by a qPCR panel after 13 weeks of treatment with 300 mg/kg of ER-899742, and an IFN gene signature score was calculated (see Pharmacology Materials and Methods section for details regarding IFN score calculation).
FIG. 5A through FIG. 5D show results of testing ER-899464 in the Pristane disease model in the same experiment as that shown in FIG. 3A through FIG. 3E. Figure Legend: Mice were euthanized after 13 weeks of compound treatment, and anti-dsDNA (FIG. 5A), anti-Sm/nRNP (FIG. 5B), anti-histone (FIG. 5C), and anti-RiboP (FIG. 5D) titers were measured in blood plasma samples by ELISA (statistical significance of treatment versus vehicle determined by ANOVA with Dunnett's post-test).
FIG. 7A through FIG. 7G show the effect of dosing with ER-899742 in Pristane-induced disease in DBA/1J mice. Figure Legend: Female DBA/1 mice at 9 weeks of age were given an intraperitoneal injection of 0.5 ml pristane or PBS. At 10 weeks post-pristane animals were bled for autoantibody titers. Once-a-day oral dosing with Vehicle (Veh; 0.5% methyl-cellulose) or 33 mg/kg, or 300 mg/kg of ER-899742 was begun 11 weeks after pristane injection and continued for 14 weeks of treatment. Mice were euthanized after 14 weeks of compound treatment, and anti-dsDNA (FIG. 7A), anti-RiboP (FIG. 7B), anti-Sm/nRNP (FIG. 7C), and anti-histone (FIG. 7D) titers were measured in blood plasma samples by ELISA (statistical significance of treatment versus vehicle determined by ANOVA with Dunnett's post-test). The same plasma was used to measure total IgG titers by ELISA at the end of dosing (FIG. 7E). […] Pristane-treated mice in this experiment developed arthritis, with swollen joints in the rear paws. Arthritis scores were assigned according to severity, each paw was scored on a scale of 0-4 based on signs of swelling and inflammation. Scores were summed for the two hind paws assessed on each animal, and graphed in FIG. 7F with statistical assessment as for ELISA titers above.
FIG. 8 contains the result of treating for a month with ER-899742 in Pristane-induced disease in DBA/1J mice with advanced disease, after development of high levels of autoantibody. Figure Legend: DBA/1J mice were injected i.p. with pristane at 10 weeks of age. Three months later anti-RiboP and anti-dsDNA titers were taken, and animals randomized into groups with matching mean titers. Groups were sacrificed after one, two or four weeks of oral dosing with ER-899742, and RiboP titers measured in serum.
Mouse Lupus Disease Models.
Mouse lupus disease model strains. Female NZBWF1/J mice were purchased from Jackson Labs (Bar Harbor, Me.), both of which manifest with spontaneous lupus disease. Female DBA/1 mice were purchased from Harlan Laboratories (Indianapolis, Ind.) and at the indicated ages given an intraperitoneal injection of 0.5 ml pristane (2,6,10,14-Tetramethylpentadecane; Sigma, St. Louis, Mo.) to chemically induce lupus disease or of 0.5 ml PBS to generate age-matched, non-diseased control mice.
Assessment of auto-antibody titers by ELISA. […]

The mark [1] stands for this setting: 33 or 300 mg/kg QD oral, 14 weeks of treatment.

As for `C[C@@H]1CN(c2ccc(C#N)c3ncccc23)C[C@H](C(=O)NC2CCN(C)CC2)O1` [ER-899464, (2R,6R)-4-(8-cyanoquinolin-5-yl)-6-methyl-N-(1-methylpiperidin-4-yl)morpholine-2-carboxamide], the “auto-antibody specificities (titers)” value is on record as “suppressed various auto-antibody specificities”.

With `C[C@@H]1CN(c2ccc(C#N)c3ncccc23)C[C@H](C(=O)N[C@H]2CNC[C@H]2F)O1.Cl` [ER-899742, (2R,6R)-4-(8-cyanoquinolin-5-yl)-N-[(3S,4R)-4-fluoropyrrolidin-3-yl]-6-methylmorpholine-2-carboxamide hydrochloride], the “auto-antibody specificities (titers)” value is “suppressed various auto-antibody specificities”. For the same compound, under setting [1], the “autoantibody against dsDNA and RiboP” value was “Control of autoantibody against dsDNA and RiboP was seen”; the “total IgG titers” value is recorded as “minimal changes in overall IgG level”. Besides, the “arthritis scores (hind paws)” value (Pristane-treated DBA/1 mice, 33 or 300 mg/kg, 14 weeks, hydrochloride) is on record as “Dose-dependent statistically significant suppression was observed; also recorded: Control of arthritis”. The “reversal of anti-RiboP or DNA titers” value (advanced disease, after 28 days of oral dosing) is reported as “no statistically significant reversal”.
